# Assay results published in patent US20070054916A1, “Aryl nitrogen-containing bicyclic compounds and methods of use” (Amgen Inc., priority 2004, published 2007).
# Tested on: production of TNF by monocytes activated with bacterial lipopolysaccharide (LPS)
# Test: Lipopolysaccharide-activated monocyte TNF production assay
# Format: cell-based
# Conditions: Homo sapiens, read-out: IC50 values in the monocyte assay (LPS induced TNF release)
# Procedure: Lipopolysaccharide-Activated Monocyte TNF Production Assay
# Test compounds were evaluated in vitro for the ability to inhibit the production of TNF by monocytes activated with bacterial lipopolysaccharide (LPS). Fresh residual source leukocytes (a byproduct of plateletpheresis) were obtained from a local blood bank, and peripheral blood mononuclear cells (PBMCs) were isolated by density gradient centrifugation on Ficol-Paque Plus (Pharmacia). PBMCs were suspended at 2×10^6/ml in DMEM supplemented to contain 2% FCS, 10 mM, 0.3 mg/ml […], 100 U/ml penicillin G and […] streptomycin sulfate (complete media). Cells were plated into Falcon flat bottom, 96 well culture plates (200 μl/well) and cultured overnight at 37° C. and 6% CO2. Non-adherent cells were removed by washing with 200 μl/well of fresh medium. Wells containing adherent cells (˜70% monocytes) were replenished with 100 μl of fresh medium.
# Preparation of Test Compound Stock Solutions
# Test compounds were dissolved in […]. Compound stock solutions were prepared to an initial concentration of […]. Stocks were diluted initially to 20-200 μM in complete media. Nine two-fold serial dilutions of each compound were then prepared in complete medium.
# Treatment of Cells with Test Compounds and Activation of TNF Production with Lipopolysaccharide
# One hundred microliters of each test compound dilution were added to microtiter wells containing adherent monocytes and 100 μl complete medium. Monocytes were cultured with test compounds for 60 min at which time 25 μl of complete medium containing 30 ng/ml lipopolysaccharide from E. coli K532 were added to each well. Cells were cultured an additional 4 hrs. Culture supernatants were then removed and TNF presence in the supernatants was quantified using an ELISA.
# Flat bottom, 96 well Corning High Binding ELISA plates were coated overnight (4° C.) with 150 μL/well of 3 μg/ml murine anti-human TNF-α MAb (R&D Systems #MAB210). Wells were then blocked for 1 hr at room temperature with 200 μL/well of CaCl2-free ELISA buffer supplemented to contain 20 mg/ml BSA (standard ELISA buffer: […], 150 mM NaCl, 2 mM CaCl2, 0.15 mM thimerosal, pH 7.4). Plates were washed and replenished with 100 μl of test supernatants (diluted 1:3) or standards. Standards consisted of eleven 1.5-fold serial dilutions from a stock of 1 ng/ml recombinant human TNF (R&D Systems). Plates were incubated at room temperature for 1 hr on orbital shaker (300 rpm), washed and replenished with 100 μl/well of 0.5 ug/ml goat anti-human TNF-α (R&D systems #AB-210-NA) biotinylated at a 4:1 ratio. Plates were incubated for 40 min, washed and replenished with 100 μl/well of alkaline phosphatase-conjugated streptavidin (Jackson ImmunoResearch #016-050-084) at 0.02 ug/ml. Plates were incubated 30 min, washed and replenished with 200 μl/well of 1 mg/ml of p-nitrophenyl phosphate. After 30 min, plates were read at 405 nm on a Vmax plate reader.
# Standard curve data were fit to a second order polynomial and unknown TNF-α concentrations determined from their OD by solving this equation for concentration. TNF concentrations were then plotted vs. test compound concentration using a second order polynomial. This equation was then used to calculate the concentration of test compounds causing a 50% reduction in TNF production.
row,SMILES,IC50 [µM]
1,"Cc1ccc(C(=O)Nc2cccc(C(F)(F)F)c2C)cc1-c1ccc2nc(NC3CC3)ncc2c1 [Example 37, 3-(2-(cyclopropylamino)-6-quinazolinyl)-4-methyl-N-(2-methyl-3-(trifluoromethyl)phenyl)benzamide]",≤ 25
2,Cc1ccc(C(=O)Nc2cc(C(C)(C)C)ccc2NC(=O)CN2CCOCC2)cc1-c1ccc2nc(N)ncc2c1 [Example 8],≤ 25
3,"Cc1ccc(C(=O)Nc2ncccc2OCCCN2CCCCC2)cc1-c1ccc2nc(N)ncc2c1 [Example 362, 3-(2-amino-6-quinazolinyl)-4-(methyl-N-(3-((3-1-piperidinyl)propyl)oxy)-2-pyridinyl)benzamide]",≤ 25
4,"Cc1ccc(C(=O)Nc2ncc(Br)s2)cc1-c1ccc2nc(N)ncc2c1 [Example 356, 3-(2-amino-6-quinazolinyl)-N-(5-bromo-1,3-thiazol-2-yl)-4-methylbenzamide]",≤ 25
5,"Cc1ccc(C(=O)Nc2ccc(F)c(C(F)(F)F)c2)cc1-c1ccc2nc(N)ncc2c1 [Example 124, 3-(2-amino-6-quinazolinyl)-N-(4-fluoro-3-(trifluoromethyl)phenyl)-4-methylbenzamide]",≤ 25
6,"COc1ccc(NC(=O)c2ccc(C)c(-c3ccc4nc(N)ncc4c3)c2)c(OC)c1 [Example 270, 3-(2-amino-6-quinazolinyl)-N-(2,4-bis(methyloxy)phenyl)-4-methylbenzamide]",≤ 25
7,"Cc1ccc(C(=O)OCc2ccccc2)cc1-c1ccc2nc(N)ncc2c1 [Example 160, phenylmethyl 3-(2-amino-6-quinazolinyl)-4-methylbenzoate]",≤ 25
8,"CNc1ncc2cc(-c3cc(C(=O)Nc4cccc(C(F)(F)F)c4)ccc3C)cnc2n1 [Example 167, 4-methyl-3-(2-(methylamino)pyrido[2,3-d]pyrimidin-6-yl)-N-(3-(trifluoromethyl)phenyl)benzamide]",≤ 25
9,"Cc1ccc(C(=O)Nc2cccc(C(F)(F)F)c2)cc1-c1ccc2nc(N)ncc2c1 [Example 120, 3-(2-amino-6-quinazolinyl)-4-methyl-N-(3-(trifluoromethyl)phenyl)benzamide]",≤ 25
10,"Cc1ccc(C(=O)Nc2ccc(C#N)c(C(F)(F)F)c2)cc1-c1ccc2nc(N)ncc2c1 [Example 125, 3-(2-amino-6-quinazolinyl)-N-(4-cyano-3-(trifluoromethyl)phenyl)-4-methylbenzamide]",≤ 25
11,"Cc1cc(C)c(-c2ccc3nc(N)ncc3c2)c(C)c1NC(=O)c1cccc(C(F)(F)F)c1 [Example 224, N-(3-(2-amino-6-quinazolinyl)-2,4,6-trimethylphenyl)-3-(trifluoromethyl) benzamide]",≤ 25
12,"Nc1ncc2cc(-c3ccc(F)c(NC(=O)c4cccc(Cl)c4Cl)c3)ccc2n1 [Example 487, N-(5-(2-amino-6-quinazolinyl)-2-fluorophenyl)-2,3-dichlorobenzamide]",≤ 25
13,"CNc1ncc2cc(-c3cc(C(=O)Nc4ccc(Cl)c(C(F)(F)F)c4)ccc3C)ccc2n1 [Example 12, N-(4-chloro-3-(trifluoromethyl)phenyl)-4-methyl-3-(2-(methylamino)-6-quinazolinyl)benzamide]",≤ 25
14,"CC(=O)c1sccc1NC(=O)c1ccc(C)c(-c2ccc3nc(N)ncc3c2)c1 [Example 355, N-(2-acetyl-3-thienyl)-3-(2-amino-6-quinazolinyl)-4-methylbenzamide]",≤ 25
15,"CCN1CCC(CNc2ncc3cc(-c4cc(C(=O)Nc5cccc(C(F)(F)F)c5C)ccc4C)ccc3n2)CC1 [Example 35, 3-(2-(((1-ethyl-4-piperidinyl)methyl)amino)-6-quinazolinyl)-4-methyl-N-(2-methyl-3-(trifluoromethyl)phenyl)benzamide]",≤ 25
16,Cc1ccc(C(=O)Nc2cccc(C(F)(F)F)c2F)cc1-c1ccc2nc(NC3CCN(C)CC3)ncc2c1 [Example 25],≤ 25
17,"Cc1ccc(NC(=O)c2cc(C(F)(F)F)ccc2C(F)(F)F)cc1-c1ccc2nc(N)ncc2c1 [Example 430, N-(3-(2-amino-6-quinazolinyl)-4-methylphenyl)-2,5-bis(trifluoromethyl)benzamide]",≤ 25
18,"Cc1ccc(C(=O)Nc2ccc(C(F)(F)F)cc2N(C)CCCN(C)C)cc1-c1ccc2nc(N)ncc2c1 [Example 118, 3-(2-amino-6-quinazolinyl)-N-(2-((3-(dimethylamino)propyl)(methyl)amino)-4-(trifluoromethyl)phenyl)-4-methylbenzamide]",≤ 25
19,"CNc1ncc2cc(-c3cc(C(=O)Nc4ccc(NC(=O)NCCN5CCOCC5)c(C(F)(F)F)c4)ccc3C)cnc2n1 [Example 187, 4-methyl-3-(2-(methylamino)pyrido [2,3-d]pyrimidin-6-yl)-N-(4-((((2-(4-morpholinyl)ethyl)amino)carbonyl)amino)-3-(trifluoromethyl)phenyl)benzamide]",≤ 25
20,"Cc1ccc(C(=O)Nc2cccc(C(F)(F)F)c2)cc1-c1ccc2nc(NCCN3CCOCC3)ncc2c1 [Example 20, 4-methyl-3-(2-((2-(4-morpholinyl)ethyl)amino)-6-quinazolinyl)-N-(3-(trifluoromethyl)phenyl)benzamide]",≤ 25
21,"COc1ccc(C(C)(C)C)cc1NC(=O)c1ccc(Cl)c(-c2ccc3nc(N)ncc3c2)c1 [Example 139, 3-(2-amino-6-quinazolinyl)-4-chloro-N-(5-(1,1-dimethylethyl)-2-(methyloxy)phenyl)benzamide]",≤ 25
22,"Nc1ncc2cc(-c3cccc(C(=O)Nc4cc(C(F)(F)F)ccc4N4CCCCC4)c3)ccc2n1 [Example 54, 3-(2-amino-6-quinazolinyl)-N-(2-(1-piperidinyl)-5-(trifluoromethyl)phenyl)benzamide]",≤ 25
23,"CN1CCN(c2ccc(C(F)(F)F)cc2NC(=O)c2cc(-c3ccc4nc(N)ncc4c3)ccc2F)CC1 [Example 421, 5-(2-amino-6-quinazolinyl)-2-fluoro-N-(2-(4-methyl-1-piperazinyl)-5-(trifluoromethyl)phenyl)benzamide]",≤ 25
24,"CN(C)CCCN(C)c1c(Cl)cc(C(F)(F)F)cc1NC(=O)c1cc(-c2ccc3nc(N)ncc3c2)ccc1F [Example 59, 5-(2-amino-6-quinazolinyl)-N-(3-chloro-2-((3-(dimethylamino)propyl)(methyl)amino)-5-(trifluoromethyl)phenyl)-2-fluorobenzamide]",≤ 25
25,"CCN(CC)S(=O)(=O)c1ccc(OC)c(NC(=O)c2ccc(C)c(-c3ccc4nc(N)ncc4c3)c2)c1 [Example 231, 3-(2-amino-6-quinazolinyl)-N-(5-((diethylamino)sulfonyl)-2-(methyloxy)phenyl)-4-methylbenzamide]",≤ 25
26,"Cc1c(NC(=O)c2cc(C(F)(F)F)cc(C(F)(F)F)c2)cccc1-c1ccc2nc(N)ncc2c1 [Example 220, N-(3-(2-amino-6-quinazolinyl)-2-methylphenyl)-3,5-bis(trifluoromethyl)benzamide]",≤ 25
27,"CN1CCC(c2cc(NC(=O)c3csc(-c4ccc5nc(N)ncc5c4)c3)cc(C(F)(F)F)c2)CC1 [Example 58, 5-(2-amino-6-quinazolinyl)-N-(3-(1-methyl-4-piperidinyl)-5-(trifluoromethyl)phenyl)-3-thiophenecarboxamide]",≤ 25
28,"CCN(CC)CCCOc1ccc(NC(=O)c2ccc(C)c(-c3ccc4nc(N)ncc4c3)c2)cc1C(F)(F)F [Example 122, 3-(2-amino-6-quinazolinyl)-N-(4-((3-(diethylamino)propyl)oxy)-3-(trifluoromethyl)phenyl)-4-methylbenzamide]",≤ 25
29,"Cc1ccc(C(=O)Nc2cc(C(F)(F)F)ccc2OCCN2CCCC2)cc1-c1ccc2nc(N)ncc2c1 [Example 420, 3-(2-amino-6-quinazolinyl)-4-methyl-N-(2-((2-(1-pyrrolidinyl)ethyl)oxy)-5-(trifluoromethyl)phenyl)benzamide]",≤ 25
30,"Cc1ccc(C(=O)Nc2cc(C(F)(F)F)ccc2N2CCS(=O)(=O)CC2)cc1-c1ccc2nc(N)ncc2c1 [Example 228, 3-(2-amino-6-quinazolinyl)-N-(2-(1,1-dioxido-4-thiomorpholinyl)-5-(trifluoromethyl)phenyl)-4-methylbenzamide]",≤ 25
